ChEMBL document CHEMBL3882729, “Receptor-type kinase modulators and methods of use” (2009)

Legend:
Ephrin type-A receptor 2 = Ephrin type-A receptor 2 (Homo sapiens, UniProt P29317); assay: Inhibition of recombinant human N-terminal His6-tagged EphA2 (N598 to R890 residues) expressed in baculovirus using poly-EY as substrate after 180 mins by luciferase coupled chemiluminescence assay
Ephrin type-B receptor 4 = molecular target: T1, Ephrin type-B receptor 4 (Homo sapiens, UniProt P54760); assay: Inhibition of recombinant human N-terminal His6-tagged EphB4 kinase domain (E605 to E890 residues) expressed in baculovirus using poly-AEKY as substrate after 150 mins in presence of gamma33P-ATP by liquid scintillation spectrometry
T1 sequence (P54760 whole entry): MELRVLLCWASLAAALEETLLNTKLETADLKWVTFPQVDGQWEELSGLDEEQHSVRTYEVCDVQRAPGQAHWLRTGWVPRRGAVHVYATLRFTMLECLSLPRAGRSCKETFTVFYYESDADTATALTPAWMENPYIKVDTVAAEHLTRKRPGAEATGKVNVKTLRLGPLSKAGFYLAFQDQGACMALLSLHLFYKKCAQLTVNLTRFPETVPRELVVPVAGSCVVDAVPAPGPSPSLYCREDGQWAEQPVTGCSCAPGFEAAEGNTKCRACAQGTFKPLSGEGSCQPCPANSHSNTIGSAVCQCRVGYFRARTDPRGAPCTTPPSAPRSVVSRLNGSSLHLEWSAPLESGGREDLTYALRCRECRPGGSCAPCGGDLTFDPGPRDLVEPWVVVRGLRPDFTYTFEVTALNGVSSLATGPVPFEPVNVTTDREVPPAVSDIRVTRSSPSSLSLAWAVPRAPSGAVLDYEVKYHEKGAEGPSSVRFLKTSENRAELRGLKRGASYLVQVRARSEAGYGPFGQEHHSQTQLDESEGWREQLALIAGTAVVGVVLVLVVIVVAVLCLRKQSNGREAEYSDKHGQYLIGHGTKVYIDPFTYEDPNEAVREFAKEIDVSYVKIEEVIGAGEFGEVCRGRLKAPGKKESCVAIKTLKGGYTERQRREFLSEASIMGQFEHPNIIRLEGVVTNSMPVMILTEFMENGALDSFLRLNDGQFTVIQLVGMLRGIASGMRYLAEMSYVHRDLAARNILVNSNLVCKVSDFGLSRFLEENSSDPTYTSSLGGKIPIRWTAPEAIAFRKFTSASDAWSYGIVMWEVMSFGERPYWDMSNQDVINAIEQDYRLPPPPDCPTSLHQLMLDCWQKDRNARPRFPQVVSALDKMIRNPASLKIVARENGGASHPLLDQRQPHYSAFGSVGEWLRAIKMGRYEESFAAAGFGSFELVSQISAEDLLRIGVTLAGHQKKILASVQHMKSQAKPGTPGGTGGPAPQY

[1] = molecular target: Vascular endothelial growth factor receptor 2 (Homo sapiens, UniProt P35968); assay: Inhibition of recombinant human N-terminal GST-fused KDR (D807 to V1356 residues) expressed in baculovirus infected […] insect Sf9 cells using poly-EY as substrate after 240 mins by luciferase coupled chemiluminescence assay
Chain of Vascular endothelial growth factor receptor 2 (P35968 whole entry, the tested form may be a part): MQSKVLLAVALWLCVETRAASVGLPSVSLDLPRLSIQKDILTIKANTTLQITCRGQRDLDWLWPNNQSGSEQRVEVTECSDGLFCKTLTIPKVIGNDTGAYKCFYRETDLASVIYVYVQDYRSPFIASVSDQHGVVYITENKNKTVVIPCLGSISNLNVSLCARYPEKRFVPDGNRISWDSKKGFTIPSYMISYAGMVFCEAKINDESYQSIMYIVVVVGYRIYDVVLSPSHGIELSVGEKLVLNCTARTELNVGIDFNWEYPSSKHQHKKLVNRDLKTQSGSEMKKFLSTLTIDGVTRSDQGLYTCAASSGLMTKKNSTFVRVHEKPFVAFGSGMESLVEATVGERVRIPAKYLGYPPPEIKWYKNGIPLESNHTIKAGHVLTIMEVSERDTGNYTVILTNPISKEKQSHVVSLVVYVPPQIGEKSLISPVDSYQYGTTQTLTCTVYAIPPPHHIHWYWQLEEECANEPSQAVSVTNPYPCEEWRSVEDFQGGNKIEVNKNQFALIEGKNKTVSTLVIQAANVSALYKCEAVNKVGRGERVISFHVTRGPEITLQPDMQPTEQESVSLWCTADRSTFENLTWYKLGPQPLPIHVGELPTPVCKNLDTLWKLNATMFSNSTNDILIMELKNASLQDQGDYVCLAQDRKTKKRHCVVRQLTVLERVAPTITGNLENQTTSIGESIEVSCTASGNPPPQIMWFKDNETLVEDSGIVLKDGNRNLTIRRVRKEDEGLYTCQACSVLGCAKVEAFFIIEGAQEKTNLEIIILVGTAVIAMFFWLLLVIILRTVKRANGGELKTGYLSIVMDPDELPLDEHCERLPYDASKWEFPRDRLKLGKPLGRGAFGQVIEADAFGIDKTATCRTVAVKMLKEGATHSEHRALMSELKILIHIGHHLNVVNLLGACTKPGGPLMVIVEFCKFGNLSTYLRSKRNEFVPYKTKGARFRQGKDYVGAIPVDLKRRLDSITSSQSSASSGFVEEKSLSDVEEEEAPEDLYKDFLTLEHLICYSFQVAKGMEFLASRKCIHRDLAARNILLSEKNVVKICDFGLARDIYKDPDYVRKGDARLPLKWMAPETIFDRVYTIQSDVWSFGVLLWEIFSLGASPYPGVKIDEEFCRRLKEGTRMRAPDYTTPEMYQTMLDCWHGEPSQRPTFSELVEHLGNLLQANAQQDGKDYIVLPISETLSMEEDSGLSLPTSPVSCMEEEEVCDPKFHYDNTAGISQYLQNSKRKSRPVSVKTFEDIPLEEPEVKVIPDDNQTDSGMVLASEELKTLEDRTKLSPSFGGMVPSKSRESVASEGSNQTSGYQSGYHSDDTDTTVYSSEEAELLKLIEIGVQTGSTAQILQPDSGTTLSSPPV

Chain of Ephrin type-A receptor 2 (P29317 whole entry, the tested form may be a part): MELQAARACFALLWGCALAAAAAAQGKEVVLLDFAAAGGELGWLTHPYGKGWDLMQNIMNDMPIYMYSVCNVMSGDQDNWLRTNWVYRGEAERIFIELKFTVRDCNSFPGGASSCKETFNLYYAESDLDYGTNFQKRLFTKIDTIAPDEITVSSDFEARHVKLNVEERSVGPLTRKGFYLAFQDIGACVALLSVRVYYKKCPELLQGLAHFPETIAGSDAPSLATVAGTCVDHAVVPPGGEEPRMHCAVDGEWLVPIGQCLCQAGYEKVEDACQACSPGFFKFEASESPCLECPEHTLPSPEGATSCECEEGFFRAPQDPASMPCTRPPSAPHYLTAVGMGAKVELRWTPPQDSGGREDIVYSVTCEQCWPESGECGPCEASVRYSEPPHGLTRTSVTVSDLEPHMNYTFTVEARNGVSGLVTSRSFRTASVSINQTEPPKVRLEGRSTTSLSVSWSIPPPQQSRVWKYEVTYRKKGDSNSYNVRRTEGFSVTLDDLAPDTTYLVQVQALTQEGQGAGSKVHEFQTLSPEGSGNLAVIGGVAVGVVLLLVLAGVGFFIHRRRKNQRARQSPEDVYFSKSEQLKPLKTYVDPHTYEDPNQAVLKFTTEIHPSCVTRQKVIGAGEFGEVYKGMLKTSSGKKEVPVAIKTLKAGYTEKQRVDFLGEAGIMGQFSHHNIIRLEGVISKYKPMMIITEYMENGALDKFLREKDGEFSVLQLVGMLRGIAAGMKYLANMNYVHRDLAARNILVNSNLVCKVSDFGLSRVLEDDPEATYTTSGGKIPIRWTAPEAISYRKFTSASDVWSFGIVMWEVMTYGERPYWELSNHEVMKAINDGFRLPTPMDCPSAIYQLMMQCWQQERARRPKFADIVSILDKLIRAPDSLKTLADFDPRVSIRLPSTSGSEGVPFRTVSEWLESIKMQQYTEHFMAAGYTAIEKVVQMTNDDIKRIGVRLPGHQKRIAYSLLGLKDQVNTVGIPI

SMILES	IC50 (Ephrin type-A receptor 2)	IC50 (Ephrin type-B receptor 4)	IC50 [1]
COc1cc2c(Nc3ccc(Cl)c(Cl)c3)ncnc2cc1OCC1CN(C(=O)CCc2ccccc2)CCO1 (stereo unspecified)	50 to 1000 nM	50 to 1000 nM	50 to 1000 nM
COc1cc2c(Nc3ccc(Cl)c(Cl)c3)ncnc2cc1OCC1CN(Cc2ccc(F)cc2)CCO1 (stereo unspecified)	50 to 1000 nM	50 to 1000 nM	50 to 1000 nM
COc1cccc(CC(=O)N2CCOC(COc3cc4ncnc(Nc5ccc(Cl)c(Cl)c5)c4cc3OC)C2)c1 (stereo unspecified)	50 to 1000 nM	50 to 1000 nM	50 to 1000 nM
COc1cc2c(Nc3cccc(Cl)c3C)ncnc2cc1OCC1CN(C)CCO1 (stereo unspecified)	< 50 nM	< 50 nM	50 to 1000 nM
COc1cc2c(Nc3ccc(Cl)c(Cl)c3)ncnc2cc1OCC1CN(CCC2CCCCC2)CCO1 (stereo unspecified)	50 to 1000 nM	50 to 1000 nM	50 to 1000 nM
CCCCC(CC)C(=O)N1CCOC(COc2cc3ncnc(Nc4ccc(Cl)c(Cl)c4)c3cc2OC)C1 (stereo unspecified)	50 to 1000 nM	50 to 1000 nM	50 to 1000 nM
CC#CCN1CCOC(COc2cc3ncnc(Nc4ccc(Cl)c(Cl)c4)c3cc2OC)C1 (stereo unspecified)	50 to 1000 nM	50 to 1000 nM	50 to 1000 nM
CCCCCCN1CCOC(COc2cc3ncnc(Nc4ccc(Cl)c(Cl)c4)c3cc2OC)C1 (stereo unspecified)	50 to 1000 nM	50 to 1000 nM	50 to 1000 nM
COc1cc2c(Nc3ccc(Cl)c(Cl)c3)ncnc2cc1OCc1nc(CS(=O)(=O)c2ccccn2)no1	50 to 1000 nM	50 to 1000 nM	50 to 1000 nM
COc1cc2c(Nc3ccc(Cl)c(Cl)c3)ncnc2cc1OCc1noc(C2CCCN2C)n1 (stereo unspecified)	50 to 1000 nM	50 to 1000 nM	50 to 1000 nM
CCCCS(=O)(=O)N1CCOC(COc2cc3ncnc(Nc4ccc(Cl)c(Cl)c4)c3cc2OC)C1 (stereo unspecified)	50 to 1000 nM	50 to 1000 nM	50 to 1000 nM
COc1cc2c(Nc3ccc(Cl)c(Cl)c3)ncnc2cc1OCC1CN(C(=O)CCC(C)C)CCO1 (stereo unspecified)	50 to 1000 nM	50 to 1000 nM	50 to 1000 nM
CCCC(CCC)C(=O)N1CCOC(COc2cc3ncnc(Nc4ccc(Cl)c(Cl)c4)c3cc2OC)C1 (stereo unspecified)	50 to 1000 nM	50 to 1000 nM	50 to 1000 nM
CCCCCN1CCOC(COc2cc3ncnc(Nc4ccc(Cl)c(Cl)c4)c3cc2OC)C1 (stereo unspecified)	50 to 1000 nM	50 to 1000 nM	50 to 1000 nM
COc1cc2c(Nc3ccc(Cl)c(Cl)c3)ncnc2cc1OCC1CN(CC2CCCCO2)CCO1 (stereo unspecified)		< 50 nM	< 50 nM
COc1cc2c(Nc3ccc(F)c(Cl)c3)ncnc2cc1OCC1CN(C)CCO1 (stereo unspecified)	50 to 1000 nM	50 to 1000 nM	50 to 1000 nM
C=CCCCN1CCOC(COc2cc3ncnc(Nc4ccc(Cl)c(Cl)c4)c3cc2OC)C1 (stereo unspecified)	50 to 1000 nM	< 50 nM	< 50 nM
COc1cc2c(Nc3ccc(Cl)c(Cl)c3)ncnc2cc1OCC1CN(CC2CC2)CCO1 (stereo unspecified)	< 50 nM	< 50 nM	< 50 nM
COc1cc2c(Nc3ccc(Cl)c(Cl)c3)ncnc2cc1OCC1CCCCO1 (stereo unspecified)		< 50 nM	
CCC(CC)CN1CCOC(COc2cc3ncnc(Nc4ccc(Cl)c(Cl)c4)c3cc2OC)C1 (stereo unspecified)	50 to 1000 nM	50 to 1000 nM	50 to 1000 nM
C=CCCCCCCN1CCOC(COc2cc3ncnc(Nc4ccc(Cl)c(Cl)c4)c3cc2OC)C1 (stereo unspecified)	50 to 1000 nM	50 to 1000 nM	50 to 1000 nM
CCCC(C)C(=O)N1CCOC(COc2cc3ncnc(Nc4ccc(Cl)c(Cl)c4)c3cc2OC)C1 (stereo unspecified)	50 to 1000 nM	50 to 1000 nM	50 to 1000 nM
COc1cc2c(Nc3ccc(Cl)c(Cl)c3)ncnc2cc1OC[C@@H]1O[C@@H](OC)[C@@H](O)[C@H](O)[C@H]1O (single isomer, unassigned)	50 to 1000 nM	< 50 nM	
COCCOc1cc2c(Nc3ccc(Cl)c(Cl)c3)ncnc2cc1OCC1CNCCO1 (stereo unspecified)		< 50 nM	< 50 nM
COc1cc2c(Nc3ccc(Cl)c(Cl)c3)ncnc2cc1OCc1csc(CN2CCOCC2)n1		50 to 1000 nM	
COc1cc2c(Nc3ccc(N4CCN(C)CC4)c(F)c3)ncnc2cc1O[C@H]1CO[C@H]2[C@@H]1OC[C@@H]2F		1000 to 20000 nM	1000 to 20000 nM
COc1cc2c(Nc3ccc(Cl)c(Cl)c3)ncnc2cc1OCc1csc(CN2CCN(C)CC2)n1		< 50 nM	
